Test results from patent publication US9012655B2, “Antimicrobial/adjuvant compounds and methods” (Denouamed, Inc., priority 2011, dated 2015).

How the values were obtained:
Assay type in all cases: cell-based
[1] = test system: Staphylococcus epidermidis NRS7; test: MIC panel of challenge pathogens (CLSI); details: Staphylococcus epidermidis NRS7; for MIC: read-out: 100% inhibition; for MIC50: read-out: MIC50 (50%); for MIC80: read-out: MIC80 (80%)
Method in brief: (§1)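 Broth microdilution per CLSI guidelines. Final inoculum 2-8×10^5 CFU/ml, compounds serially two-fold diluted from 128 mg/L top concentration. Incubated in the dark at 30-37° C for 24-48 h, aerobic or anaerobic as appropriate. MIC read visually as 100% inhibition endpoint; MIC50 and MIC80 also reported.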

[2] = test system: Staphylococcus aureus NRS2 (ATCC700698); test: MIC panel of challenge pathogens (CLSI); details: Staphylococcus aureus NRS2 (ATCC700698); for MIC: read-out: 100% inhibition; for MIC50: read-out: MIC50 (50%); for MIC80: read-out: MIC80 (80%)
Method in brief: as §1

[3] = test system: Staphylococcus aureus AUR58 7005; test: MIC panel of challenge pathogens (CLSI); details: AUR587005, Staphylococcus aureus AUR58 7005; for MIC: read-out: 100% inhibition; for MIC50: read-out: MIC50 (50%); for MIC80: read-out: MIC80 (80%)
Method in brief: as §1

[4] = test system: Enterococcus faecalis ATCC29212; test: MIC panel of challenge pathogens (CLSI); details: Enterococcus faecalis ATCC29212; for MIC: read-out: 100% inhibition; for MIC50: read-out: MIC50 (50%); for MIC80: read-out: MIC80 (80%)
Method in brief: as §1

[5] = test system: Staphylococcus aureus EUP SAU040; test: MIC panel of challenge pathogens (CLSI); details: EUPSAU040, Staphylococcus aureus EUP SAU040; for MIC: read-out: 100% inhibition; for MIC50: read-out: MIC50 (50%); for MIC80: read-out: MIC80 (80%)
Method in brief: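 Broth microdilution per CLSI guidelines; final inoculum 2-8×10^5 CFU/ml in the appropriate broth. Compounds serially diluted two-fold from a top assay concentration of 128 mg/L. Plates incubated in the dark at 30-37° C for 24-48 hours, read visually; MIC taken as 100% inhibition endpoint.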

[6] = test system: Staphylococcus aureus NRS384; test: MIC panel of challenge pathogens (CLSI); details: Staphylococcus aureus NRS384; for MIC: read-out: 100% inhibition; for MIC50: read-out: MIC50 (50%); for MIC80: read-out: MIC80 (80%)
Method in brief: as §1

[7] = test system: Staphylococcus aureus AUR131 007035; test: MIC panel of challenge pathogens (CLSI); details: AUR131007035, Staphylococcus aureus AUR131 007035; for MIC: read-out: 100% inhibition; for MIC50: read-out: MIC50 (50%); for MIC80: read-out: MIC80 (80%)
Method in brief: as §1

[8] = test system: Staphylococcus aureus AUR59 7005; test: MIC panel of challenge pathogens (CLSI); details: AUR597005, Staphylococcus aureus AUR59 7005; for MIC: read-out: 100% inhibition; for MIC50: read-out: MIC50 (50%); for MIC80: read-out: MIC80 (80%)
Method in brief: as §1

Bacillus cereus NCTC6349 = test: MIC panel of challenge pathogens (CLSI); details: Bacillus cereus NCTC6349; for MIC: read-out: 100% inhibition; for MIC50: read-out: MIC50 (50%); for MIC80: read-out: MIC80 (80%)
Method in brief: as §1

[9] = test system: Enterococcus faecium ATCC700221; test: MIC panel of challenge pathogens (CLSI); details: Enterococcus faecium ATCC700221; for MIC: read-out: 100% inhibition; for MIC50: read-out: MIC50 (50%); for MIC80: read-out: MIC80 (80%)
Method in brief: as §1

[10] = test system: Staphylococcus aureus EUP MRSA004; test: MIC panel of challenge pathogens (CLSI); details: EUPMRSA004, Staphylococcus aureus EUP MRSA004; for MIC: read-out: 100% inhibition; for MIC50: read-out: MIC50 (50%); for MIC80: read-out: MIC80 (80%)
Method in brief: as §1

[11] = test system: Staphylococcus aureus NRS382; test: MIC panel of challenge pathogens (CLSI); details: Staphylococcus aureus NRS382; for MIC: read-out: 100% inhibition; for MIC50: read-out: MIC50 (50%); for MIC80: read-out: MIC80 (80%)
Method in brief: as §1

[12] = test system: Staphylococcus aureus AUR60 7005; test: MIC panel of challenge pathogens (CLSI); details: AUR607005, Staphylococcus aureus AUR60 7005; for MIC: read-out: 100% inhibition; for MIC50: read-out: MIC50 (50%); for MIC80: read-out: MIC80 (80%)
Method in brief: as §1

[13] = test system: Staphylococcus aureus ATCC43300; test: MIC panel of challenge pathogens (CLSI); details: Staphylococcus aureus ATCC43300; for MIC: read-out: 100% inhibition; for MIC50: read-out: MIC50 (50%); for MIC80: read-out: MIC80 (80%)
Method in brief: as §1

[14] = test system: Staphylococcus aureus NRS1 (ATCC700699); test: MIC panel of challenge pathogens (CLSI); details: Staphylococcus aureus NRS1 (ATCC700699); for MIC: read-out: 100% inhibition; for MIC50: read-out: MIC50 (50%); for MIC80: read-out: MIC80 (80%)
Method in brief: as §1

[15] = test system: Staphylococcus epidermidis NRS122; test: MIC panel of challenge pathogens (CLSI); details: Staphylococcus epidermidis NRS122; for MIC: read-out: 100% inhibition; for MIC50: read-out: MIC50 (50%); for MIC80: read-out: MIC80 (80%)
Method in brief: as §1

[16] = test system: Staphylococcus aureus EUP MRSA002; test: MIC panel of challenge pathogens (CLSI); details: EUPMRSA002, Staphylococcus aureus EUP MRSA002; for MIC: read-out: 100% inhibition; for MIC50: read-out: MIC50 (50%); for MIC80: read-out: MIC80 (80%)
Method in brief: as §1

E. coli D22 = test: MIC, NCCLS M7-A6 broth microdilution, E. coli D22; details: Escherichia coli, D22, 16 to 20 h, 35 degrees Celsius
Method in brief: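 Broth microdilution per NCCLS M7-A6 in cation-adjusted Mueller-Hinton broth, doubling dilutions, inoculum 5×10^5 CFU/mL, DMSO controls included. Read after 16–20 h at 35 °C in ambient air; MIC is lowest concentration preventing visible growth.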

Clc1ccc(-c2cc(-c3nnn[nH]3)sc2-c2ccc(Cl)cc2)cc1 [DNM0487, 5-(4,5-Bis(4-chlorophenyl)thiophen-2-yl)-1H-tetrazole]
4 µg/mL: MIC [15] | MIC50 [15] | MIC80 [15]
1 µg/mL: MIC [1] | MIC80 [1] | MIC50 [2] | MIC [3] | MIC50 [3] | MIC80 [3] | MIC50 [5] | MIC80 [5] | MIC [6] | MIC50 [6] | MIC80 [6] | MIC [7] | MIC50 [7] | MIC80 [7] | MIC [8] | MIC50 [8] | MIC80 [8] | MIC [9] | MIC50 [9] | MIC80 [9] | MIC50 [10] | MIC [11] | MIC50 [11] | MIC80 [11] | MIC [12] | MIC50 [12] | MIC80 [12] | MIC [13] | MIC50 [13] | MIC80 [13] | MIC50 [16]
0.25 µg/mL: MIC50 [14]
> 125 µM: MIC (E. coli D22)
0.5 µg/mL: MIC50 [1] | MIC (Bacillus cereus NCTC6349) | MIC50 (Bacillus cereus NCTC6349) | MIC80 (Bacillus cereus NCTC6349) | MIC [14] | MIC80 [14]
2 µg/mL: MIC [2] | MIC80 [2] | MIC [4] | MIC50 [4] | MIC80 [4] | MIC [5] | MIC [10] | MIC80 [10] | MIC [16] | MIC80 [16]

CC(C)c1cc(Cl)ccc1-c1cc(-c2nnn[nH]2)sc1-c1ccc(Cl)cc1C(C)C [DNM0548, 5-(4,5-Bis(4-chloro-2-iso-propylphenyl)thiophen-2-yl)-1H-tetrazole]
0.5 µg/mL: MIC [1] | MIC50 [1] | MIC80 [1] | MIC [2] | MIC50 [2] | MIC80 [2] | MIC [5] | MIC50 [5] | MIC80 [5] | MIC [7] | MIC50 [7] | MIC80 [7] | MIC [8] | MIC50 [8] | MIC80 [8] | MIC [10] | MIC50 [10] | MIC80 [10] | MIC [11] | MIC50 [11] | MIC80 [11] | MIC [12] | MIC50 [12] | MIC80 [12] | MIC [16] | MIC50 [16] | MIC80 [16]
60 µM: MIC (E. coli D22)
0.25 µg/mL: MIC [4] | MIC50 [4] | MIC80 [4]
≤ 0.25 µg/mL: MIC [6] | MIC50 [6] | MIC80 [6] | MIC (Bacillus cereus NCTC6349) | MIC50 (Bacillus cereus NCTC6349) | MIC80 (Bacillus cereus NCTC6349) | MIC [9] | MIC50 [9] | MIC80 [9] | MIC [13] | MIC50 [13] | MIC80 [13] | MIC [14] | MIC50 [14] | MIC80 [14]
1 µg/mL: MIC [3] | MIC50 [3] | MIC80 [3] | MIC [15] | MIC50 [15] | MIC80 [15]
